The text below walks through data of US20140134690A1, “MICROBES AND METHODS FOR PRODUCING 1-PROPANOL” (University of Georgia Research Foundation, Inc., priority 2012, published 2014).

Assay in all cases: Methylglyoxal synthase assay
Test [1] addresses T1, Clostridium acetobutylicum (ATCC 824) methylglyoxal synthase (mgsA), wild type (Clostridium acetobutylicum, UniProt Q97IN6).
T1 sequence (Q97IN6 1-145): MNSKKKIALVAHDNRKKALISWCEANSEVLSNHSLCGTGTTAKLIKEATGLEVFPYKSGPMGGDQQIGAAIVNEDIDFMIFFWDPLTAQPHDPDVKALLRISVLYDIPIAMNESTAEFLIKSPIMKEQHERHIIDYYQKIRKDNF
The test is classed as biochemical, C. acetobutylicum. As to conditions: substrate dihydroxyacetone phosphate 0.15-1.5 mM; crude extract; pH 7.0; 30° C. An excerpt: (§1) 1,2-Propanediol pathway branches from glycolysis and competes for the intermediate dihydroxyacetone phosphate, with the glycolytic pathway. […] We amplified the mgsA genes from the microorganisms: C. acetobutylicum (ATCC#824), B. subtilis 168, C. difficile R20291, E. coli MG1655, T. thermophilus HB27, K. pneumoniae MGH78578, P. fluorescens Pf-5, and R. eutropha H16 respectively. These genes were cloned and expressed in wild type E. coli BW25113 using eight plasmids pRJ1-pRJ8. Each gene was under the control of the IPTG-inducible pLlacO1 promoter. Using dihydroxyacetone-phosphate as the substrate, we successfully detected the functional expression of all mgsA genes in vitro, where the specific activities varied from 0.0052 U/mg to 0.1242 U/mg (Table 1). […] Without the over-expression of mgsA gene, we also detected the native expression of E. coli mgsA, which gave a specific activity of only 0.0008 U/mg, much lower than that of any over-expression.
(§2) Using the primers listed in Table 5, the mgsA genes were PCR amplified from the genomic DNA of C. acetobutylicum (ATCC824), B. subtilis 168, Clostridium difficile R20291, E. coli MG1655, Thermus thermophilus HB27, K. pneumoniae MGH78578, Pseudomonas fluorescens Pf-5, and Ralstonia eutropha H16 respectively. […]
(§3) The assay was carried out using a two-step procedure. […] The samples were diluted 10 times before measuring the absorbance at 550 nm.

In test [2] the target is T2, Bacillus subtilis 168 methylglyoxal synthase (mgsA), wild type (Bacillus subtilis, UniProt P42980).
T2 sequence (P42980 1-137): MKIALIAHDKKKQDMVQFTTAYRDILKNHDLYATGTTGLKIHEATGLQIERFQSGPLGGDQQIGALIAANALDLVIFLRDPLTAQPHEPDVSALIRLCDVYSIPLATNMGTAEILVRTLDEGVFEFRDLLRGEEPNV
The test is classed as biochemical, B. subtilis.
From the text: as §1, §2, §3

Test [3] addresses Clostridium difficile R20291 methylglyoxal synthase (mgsA), wild type (Clostridioides difficile, UniProt A0A9R0BJ64). In kind it is biochemical, C. difficile. As to conditions: substrate dihydroxyacetone phosphate 0.15-1.5 mM; crude extract; pH 7.0; 30° C.
From the text: as §1, §2, §3

For test [4], the target named is E. coli MG1655 methylglyoxal synthase (mgsA), wild type (Escherichia coli, UniProt P0A731). In kind it is biochemical. As to conditions: substrate dihydroxyacetone phosphate 0.15-1.5 mM; crude extract; pH 7.0; 30° C.
From the text: as §1, §2, §3

Test [5] deals with T3, Thermus thermophilus HB27 methylglyoxal synthase (mgsA), wild type (Thermus thermophilus, UniProt Q72HP3).
T3 sequence (Q72HP3 1-126): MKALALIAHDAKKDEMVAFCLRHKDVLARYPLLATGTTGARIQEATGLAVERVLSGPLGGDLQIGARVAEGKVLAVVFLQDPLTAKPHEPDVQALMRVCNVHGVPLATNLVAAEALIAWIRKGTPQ
The test is classed as biochemical, T. thermophilus. As to conditions: substrate dihydroxyacetone phosphate 0.15-1.5 mM; crude extract; pH 7.0; 30° C.
From the text: as §1, §2, §3

Test [6] has as its target Klebsiella pneumoniae MGH78578 methylglyoxal synthase (mgsA), wild type (Klebsiella pneumoniae, UniProt A6T757). In kind it is biochemical, K. pneumoniae. As to conditions: substrate dihydroxyacetone phosphate 0.15-1.5 mM; crude extract; pH 7.0; 30° C.
From the text: as §1, §2, §3

The target in test [7] is T4, Pseudomonas fluorescens Pf-5 methylglyoxal synthase (mgsA), wild type (Pseudomonas protegens, UniProt Q4K7S5).
T4 sequence (Q4K7S5 1-154): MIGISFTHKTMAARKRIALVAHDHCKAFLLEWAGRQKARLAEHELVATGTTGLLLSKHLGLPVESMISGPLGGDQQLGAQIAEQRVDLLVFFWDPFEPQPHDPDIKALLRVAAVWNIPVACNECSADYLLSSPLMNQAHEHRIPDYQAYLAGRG
The test is classed as biochemical, P. fluorescens. As to conditions: substrate dihydroxyacetone phosphate 0.15-1.5 mM; crude extract; pH 7.0; 30° C.
From the text: as §1, §2, §3

In test [8] the target is T5, Ralstonia eutropha H16 methylglyoxal synthase (mgsA), wild type (Cupriavidus necator, UniProt Q0KD43).
T5 sequence (Q0KD43 1-132): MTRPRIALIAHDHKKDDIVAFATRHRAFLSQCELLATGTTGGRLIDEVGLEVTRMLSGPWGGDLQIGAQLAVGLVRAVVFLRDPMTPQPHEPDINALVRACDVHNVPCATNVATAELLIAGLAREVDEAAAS
The test is classed as biochemical, R. eutropha. As to conditions: substrate dihydroxyacetone phosphate 0.15-1.5 mM; crude extract; pH 7.0; 30° C.
From the text: as §1, §2, §3

Chain of Clostridium difficile R20291 methylglyoxal synthase (mgsA), wild type (A0A9R0BJ64 entry or part of it): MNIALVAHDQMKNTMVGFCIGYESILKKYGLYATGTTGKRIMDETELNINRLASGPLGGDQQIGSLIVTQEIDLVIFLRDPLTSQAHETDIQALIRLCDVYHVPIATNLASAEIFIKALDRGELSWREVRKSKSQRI
Chain of Klebsiella pneumoniae MGH78578 methylglyoxal synthase (mgsA), wild type (A6T757 6-157): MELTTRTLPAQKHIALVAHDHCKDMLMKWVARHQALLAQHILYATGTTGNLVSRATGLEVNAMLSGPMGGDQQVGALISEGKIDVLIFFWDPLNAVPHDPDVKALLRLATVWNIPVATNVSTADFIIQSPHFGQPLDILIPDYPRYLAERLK
Chain of E. coli MG1655 methylglyoxal synthase (mgsA), wild type (P0A731 whole entry): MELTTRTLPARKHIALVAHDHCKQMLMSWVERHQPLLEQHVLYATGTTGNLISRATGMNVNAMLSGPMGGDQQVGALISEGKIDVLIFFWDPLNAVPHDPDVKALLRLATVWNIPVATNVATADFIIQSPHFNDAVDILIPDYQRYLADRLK

On to `O=C(CO)COP(=O)(O)O` [dihydroxyacetone phosphate], for which the “Specific Activity/Km” value in test [1] is 0.0697 U/mg/mM; in test [2] (substrate dihydroxyacetone phosphate 0.15-1.5 mM, crude extract, pH 7.0, 30° C.) it was 0.1186 U/mg/mM; in test [3], 0.0415 U/mg/mM; in test [4], 0.0876 U/mg/mM; in test [5] it was 0.0076 U/mg/mM; in test [6], 0.0058 U/mg/mM. In addition, the results for the “Specific Activity/Km” value in test [7] and in test [8] were 0.0085 U/mg/mM and 0.0074 U/mg/mM, respectively. The “ratio of specific activity/Km” value in test [2] (substrate dihydroxyacetone-phosphate) was 0.1186.
